Tested on: HEK293T cells
Assay: Fluorescence imaging of RDP-1 and RDP-2 with HEK293T cells
Type: cell-based, human
Conditions: for change in depalmitoylation activity from RDP-1: 10 μM inhibitor 30 min
Experimental: HEK293T were plated with […] of DMEM (Gibco, Gaithersburg, Md., United States of America; High Glucose, Glutamax, 10% FBS) a four well chambered imaging dish (D35C4-20-1.5-N, Cellvis, Mountain View, Calif., United States of America) which were precoated with 4 μg Poly-D-lysine (30-70 kilodalton (KDa), Alfa Aesar, Haverhill, Mass., United States of America) for 2 h at room temperature or overnight at 4° C. and grown to ca. 80% confluence prior to imaging. 30 min before the addition of the RDP, the cell culture media was removed and cells were washed with 500 μL of serum-free DMEM (Gibco, Gaithersburg, Md., United States of America, High Glucose, Glutamax, no FBS). The media was then replaced with 500 μL of serum-free DMEM containing 100 nM Mitotracker Deep Red (Thermo Fisher Scientific, Waltham, Mass., United States of America; to assist in focusing and processing) and either 0.1% DMSO carrier as a control or Palm B, ML348, or ML349 in DMSO and incubated for 30 min at 37° C. and 5% CO2. The media was removed, the cells were washed with 500 μL of Live Cell Imaging Solution (Thermo Fisher Scientific, Waltham, Mass., United States of America), and 500 μL of 1 μM RDP-1 or RDP-2 along with the appropriate inhibitor or DMSO as control in Live Cell Imaging Solution was added to each well. After incubation for 10 min at 37° C. and 5% CO2, the cells were washed with 500 μL Live Cell Imaging Solution and 500 μL of Live Cell Imaging Solution containing DMSO or the appropriate inhibitor was added to the cells immediately before images were obtained on an inverted epi-fluorescence microscope (Olympus IX83; Olympus Corporation, Tokyo, Japan) attached with EMCCD camera (Photometrics EVOLVE™ Delta; Photometrics, Tucson, Ariz., United States of America) with 40× oil objective (N/A 1.3) for RDP-1 (excitation filter 1 430/24 nm, dichroic chroma 89007, emission filter 1 470/24 nm, exposure time 100 ms, EM gain 80, excitation filter 2 480/20 nm, dichroic chroma 49014, emission filter 2 575/40 nm, exposure time 70 ms, EM gain 50) or for RDP-2 (excitation filter 1 430/24 nm, dichroic chroma 89007, emission filter 1 470/24 nm, exposure time 70 ms, EM gain 50, excitation filter 2 480/20, dichroic chroma 49014, emission filter 2 575/40 nm, exposure time 50 ms, EM gain 30), brightfield (exposure time 50 ms, EM gain 30), and MitoTracker Deep Red: (excitation filter 640/30 nm, emission filter 705/72 nm, dichroic chroma 89016, exposure time 15 ms, EM gain 15). Analyses were performed in ImageJ as described below. Each experiment was repeated at least three separate times with identical results.
The probe channel data were expressed as a ratio of the blue channel divided by the green channel and normalized to the average fluorescence intensity of the control conditions. To eliminate errors from autofluorescence, the images were thresholded using the bluer channel images at the same minimum level that included the maximum number of cells in focus (as determined visually by the mitocondrial dye) while limiting the signal from areas where cells are not present. The average value of all nonzero pixels from the blue channel:green channel ratio image were calculated in ImageJ for three different measurements from each experiment. The percent deprotected was estimated by imaging RDP-1/2 in buffer (20 mM HEPES, 150 mM NaCl, 0.1% Triton X-100, pH 7.4, 0.1% DMSO) and for dye deprotected with 20 mM DTT in buffer (20 mM HEPES, 150 mM NaCl, 0.1% Triton X-100, pH 7.4, 0.1% DMSO) for 1 h at room temperature before aliquoted into individual tubes and stored at −80° C. A fresh aliquot of the solution was thawed for each experiment and diluted to 250 nM (RDP-1) or 500 nM (RDP-2) in buffer (20 mM HEPES, 150 mM NaCl, 0.1% Triton X-100, pH 7.4, 10 mM DTT) and allowed to equilibrate for 30 m before being imaged. […]

SMILES | decrease of measured depalmitoylation activity, RDP-1 (20 μM PalmB 30 min pretreatment, 1 μM RDP-1) | decrease of measured depalmitoylation activity, RDP-2 (20 μM PalmB 30 min pretreatment, 1 μM RDP-2) | increase in depalmitoylation activity, RDP-2 (5 μM ML349 30 min, 1 μM RDP-2) | change in depalmitoylation activity from RDP-1 (1 μM RDP-1) | decrease in depalmitoylation activity, RDP-2 (5 μM ML348 30 min, 1 μM RDP-2)
CCCCCCCCCC[C@@H]1C(=O)O[C@H]1CCc1ccc(OC)c(OC)c1 [PalmB, palmostatin B] | almost in half | almost in half | – | – | –
COc1ccc(N2CCN(C(=O)c3cc4c(s3)-c3ccccc3S(=O)(=O)C4)CC2)cc1 [ML349] | – | – | about 12% | slight increase | –
O=C(CN1CCN(C(=O)c2ccco2)CC1)Nc1cc(C(F)(F)F)ccc1Cl [ML348] | – | – | – | slight increase | about 30%
